From US20260098061A1, “EPHA2-BINDING PENDING PEPTIDE AND COMPOSITION COMPRISING SAME” (PeptiDream Inc., priority 2022, published 2026)
Numbered stars: 1 amine (or outer) side, 2 acyl side, 3 side chain; on linkers, the order of the positions; unused ones are H or OH. Bridge positions count the residues as written; N and C are the ends. Square brackets hold non-standard residues; d marks the D form. Side chains are listed from the residue outwards. Peptide text beside a SMILES is read from it. * marks the point of attachment. NH(1-deoxy-D-glucityl) = OC[C@@H](O)[C@@H](O)[C@H](O)[C@@H](O)CN*; Trp(1-Me,7-Cl) = Cn1cc(C[C@H](N)C(=O)O)c2cccc(Cl)c21; Ala(2-NH2-4-pyridyl) = Nc1cc(C[C@H](N)C(=O)O)ccn1; dPhe(3-CONH2) = NC(=O)c1cccc(C[C@@H](N)C(=O)O)c1; Piperazinyl(4-CH2COOH) = O=C(O)CN1CCN(*)CC1; Trp(1-Me) = Cn1cc(C[C@H](N)C(=O)O)c2ccccc21; NMe3Pal = CN[C@@H](Cc1cccnc1)C(=O)O; NMeF = CN[C@@H](Cc1ccccc1)C(=O)O; hCit = NC(=O)NCCCC[C@H](N)C(=O)O; Gly(cBu) = N[C@H](C(=O)O)C1CCC1; NMeE = CN[C@@H](CCC(=O)O)C(=O)O; Aad = N[C@@H](CCCC(=O)O)C(=O)O; Chg = N[C@H](C(=O)O)C1CCCCC1; NMeA = CN[C@@H](C)C(=O)O; CO = O=C([*:1])[*:2]

Target: T1, Recombinant Human EphA2 Fc Protein (Homo sapiens, UniProt P29317)
T1 construct: purchased Elabscience
Assay: SPR interaction analysis (Biacore T200), kinetics of peptides against EphA2
Type: binding
Conditions: Recombinant Human EphA2 Fc Protein captured by Human Antibody Capture kit; single-cycle kinetics; 25° C.; HBS-P+ buffer with 1% DMSO
In short: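 On a Biacore T200 at 25° C, Fc-tagged human EphA2 was captured via anti-human antibody; peptides ran as five serial dilutions in HBS-P+ pH 7.4 with 1% DMSO by single-cycle kinetics. Baseline-subtracted data fitted for ka and kd, from which KD was derived.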

Row | Kd | Structure (SMILES)
1 | < 1 nM | CN1C(=O)[C@H](CCC(=O)NC[C@H](O)[C@@H](O)[C@H](O)[C@H](O)CO)NC(=O)[C@H](C2CCC2)NC(=O)[C@H](CC(N)=O)NC(=O)[C@H](Cc2cccnc2)N(C)C(=O)[C@@H](Cc2cccc(C(N)=O)c2)NC(=O)CSC[C@@H](C(N)=O)NC(=O)[C@H](Cc2cn(C)c3ccccc23)NC(=O)[C@H](CCCCNC(N)=O)NC(=O)[C@H](Cc2cn(C)c3c(Cl)cccc23)NC(=O)[C@@H]1CCC(=O)O [PDC_EphA2-00026607, df3CON-Me3Py-N-Cbg-Qglucamine-MeE-W1Me7Cl-Hcit-W1Me-C-NH2] ({CH2CO}-[dPhe(3-CONH2)][NMe3Pal]N[Gly(cBu)]E(NH(1-deoxy-D-glucityl))[NMeE][Trp(1-Me,7-Cl)][hCit][Trp(1-Me)]C-NH2; thioether N-10)
2 | < 1 nM | C[C@H]1NC(=O)CSC[C@@H](C(N)=O)NC(=O)[C@H](CCCC(N)=O)NC(=O)[C@H]([C@@H](C)O)NC(=O)[C@H](Cc2cn(C)c3ccccc23)NC(=O)[C@H](CCCCNC(=O)N2CCN(CC(=O)O)CC2)NC(=O)[C@H](Cc2cn(C)c3ccccc23)NC(=O)[C@H](Cc2ccccc2)N(C)C(=O)[C@H](CC(=O)N(C)C)NC(=O)[C@H](C2CCCCC2)NC(=O)[C@H](CC(N)=O)NC(=O)[C@H](Cc2cccnc2)N(C)C1=O [PDC_EphA2-00018537, da-Me3Py-N-Chg-Ndm-MeF-W1Me-KCOpipzaa-W1Me-T-Hgn-C-NH2] ({CH2CO}-[dA][NMe3Pal]N[Chg]D(NMe2)[NMeF][Trp(1-Me)]K([CO-Piperazinyl(4-CH2COOH)])[Trp(1-Me)]T[Aad](NH2)C-NH2; thioether N-12)
3 | < 1 nM | CC(C)C[C@@H]1NC(=O)[C@H](CC(N)=O)NC(=O)[C@H](Cc2cccnc2)N(C)C(=O)[C@@H](C)NC(=O)CSC[C@@H](C(N)=O)NC(=O)[C@H](CCCC(N)=O)NC(=O)[C@H]([C@@H](C)O)NC(=O)[C@H](Cc2cn(C)c3ccccc23)NC(=O)[C@H](CCCCNC(=O)N2CCN(CC(=O)O)CC2)NC(=O)[C@H](Cc2cn(C)c3ccccc23)NC(=O)[C@H](Cc2ccccc2)N(C)C(=O)[C@H](CCCC(N)=O)NC1=O [PDC_EphA2-00009998, da-Me3Py-N-L-Hgn-MeF-W1Me-KCOpipzaa-W1Me-T-Hgn-C-NH2] ({CH2CO}-[dA][NMe3Pal]NL[Aad](NH2)[NMeF][Trp(1-Me)]K([CO-Piperazinyl(4-CH2COOH)])[Trp(1-Me)]T[Aad](NH2)C-NH2; thioether N-12)
4 | < 1 nM | CN1C(=O)[C@H](CCCC(N)=O)NC(=O)[C@H](C2CCC2)NC(=O)[C@H](CC(N)=O)NC(=O)[C@H](Cc2cccnc2)N(C)C(=O)[C@@H](Cc2cccc(C(N)=O)c2)NC(=O)CSC[C@@H](C(N)=O)NC(=O)[C@H](Cc2cn(C)c3ccccc23)NC(=O)[C@H](CCCCNC(=O)N2CCN(CC(=O)O)CC2)NC(=O)[C@H](Cc2cn(C)c3c(Cl)cccc23)NC(=O)[C@@H]1CCC(=O)O [PDC_EphA2-00026606, df3CON-Me3Py-N-Cbg-Hgn-MeE-W1Me7Cl-KCOpipzaa-W1Me-C-NH2] ({CH2CO}-[dPhe(3-CONH2)][NMe3Pal]N[Gly(cBu)][Aad](NH2)[NMeE][Trp(1-Me,7-Cl)]K([CO-Piperazinyl(4-CH2COOH)])[Trp(1-Me)]C-NH2; thioether N-10)
5 | 100 to 400 nM | CC(C)C[C@@H]1NC(=O)[C@H](Cc2ccnc(N)c2)NC(=O)[C@H](Cc2ccccc2)NC(=O)CSC[C@@H](C(N)=O)NC(=O)[C@H](Cc2cn(C)c3ccccc23)NC(=O)[C@H](Cc2ccccc2)N(C)C(=O)[C@H](Cc2cn(C)c3ccccc23)NC(=O)[C@H](C)N(C)C1=O [PDC_EphA2-00026479, F-4Py2NH2-L-MeA-W1Me-MeF-W1Me-C-NH2] ({CH2CO}-F[Ala(2-NH2-4-pyridyl)]L[NMeA][Trp(1-Me)][NMeF][Trp(1-Me)]C-NH2; thioether N-8)
